Data on 3 compounds can be found in patent US7404962B1, “Combination kit used in the treatment of malaria” (Nicholas Piramal India Limited, priority 2000, dated 2008).

For data set [1] the following is noted: literature, cited from earlier work.
The conditions of data set [2]: literature; cited from earlier work.
Data set [3] can be described thus: Methemoglobin toxicity study in healthy human volunteers. The data set is classed as in vivo. On the procedure:
3-[1-[[4-[(6-methoxy-8-quinolinyl)amino]pentyl]amino]ethylidene]-dihydro-2(3H)furanone (I) was evaluated vis-à-vis primaquine for toxicity related to methemoglobin formation in human.
The methemoglobin toxicity of compound I was evaluated via-à-vis that of primaquine in normal human volunteers.

The test system of data set [4] is P. vivax. In words: Clinical evaluation of the combination kit in patients, one year surveillance study. In kind it is in vivo, human. The following applies: compound I 25 mg vs primaquine 15 mg, each with chloroquine. As to the method: The efficacy of the combination kit of the present invention, containing compound I (25 mg) was clinically evaluated and compared with primaquine (15 mg) used in combination with chloroquine in a group of patients over a one year surveillance study.

The test system of data set [5] is P. cynomolgi. Kind of data set: Radical curative activity against P. cynomolgi in rhesus monkeys. The data set is classed as in vivo. As to the method:
The radical curative anti-malarial activity and toxicity of the compound I was evaluated and compared with that caused by primaquine.
Combination regimen of chloroquine and 3-[1-[[4-[(6-methoxy-8-quinolinyl)amino]pentyl]amino]ethylidene]-dihydro-2(3H)furanone(I) tested against P. cynomolgi in rhesus monkeys.
The therapeutic effect of the combination regimen consisting of chloroquine and 3-[1-[[4-[(6-methoxy-8-quinolinyl)amino]pentyl]amino]-ethylidene]-4,5-dihydro-2(3H)furanone (I) was tested against P. cynomolgi in rhesus monkeys. 3-[1-[[4-[(6-methoxy-8-quinolinyl)-amino]pentyl]amino]ethylidene]-dihydro-2(3H)furanone(I) was administered in the dose level of 4.00 mg/kg (to 3 monkeys), 3.00 mg/kg (to 3 monkeys), 2.50 mg/kg (to 4 monkeys), 2.00 mg/kg (to 3 monkeys) and 1.25 mg/kg (to 9 monkeys) for 7 days. Chloroquine was administered as a companion drug at 5 mg/kg (base) dose. Minimum curative dose of compound I was found 1.25 mg/kg in 9 monkeys.

Data set [6] concerns anti-oxidant defense enzymes. The note with it: literature; cited from earlier work.

Where two headings read alike, the source gives them in different places.

In the case of `COc1cc(C)c2c(Oc3cccc(C(F)(F)F)c3)c(OC)cc(NC(C)CCCN)c2n1` (stereo not shown) [tafenoquine, reference compound], the “anti-relapse activity versus primaquine” value in data set [1] was “more effective than primaquine”. Further, the “methemoglobin formation / toxicity versus primaquine” value in data set [2] is given as “almost three times more than that of primaquine”.
Turning to `COc1cc(NC(C)CCCN)c2ncccc2c1` (stereo not shown) [primaquine, reference compound], the “methemoglobin level after dosing” value in data set [3] (healthy human volunteers, 15 mg daily for 7 days) was 16.23%. Also, in data set [3] (healthy human volunteers, starting level), the “methemoglobin level before dosing” value worked out at 3.97%.
With `COc1cc(NC(C)CCCN/C(C)=C2/CCOC2=O)c2ncccc2c1` (stereo not shown) [compound I, 3-[1-[[4-[(6-methoxy-8-quinolinyl)amino]pentyl]amino]ethylidene]-dihydro-2(3H)-furanone], the “anti-relapse activity versus primaquine” value in data set [1] is recorded as “comparable to Primaquine”. The “anti-relapse activity versus primaquine” value in data set [1] (listed as compound of formula (I)) is “comparable to primaquine”. Besides, in data set [2], the “methemoglobin formation / toxicity versus primaquine” value is “less methemoglobin formation”; the toxicity versus primaquine result was “safer and less toxic”. In addition, the “radical curative activity versus primaquine” value in data set [4] is on record as “as effective as primaquine”. The “curative effect at doses higher than 1.25 mg/kg” value in data set [5] (2.0, 2.50, 3.00 and 4.00 mg/kg (base) for 7 days, chloroquine 5 mg/kg (base)) is given as “curative”. In data set [5] (9 rhesus monkeys, 7 days, chloroquine companion drug at 5 mg/kg (base)), the Minimum curative dose was determined as 1.25 mg/kg. The “blood smears after stopping the treatment” value in data set [5] (all monkeys observed over a period of 100 days) is “remained negative”. Moreover, the curative in data set [5] (rhesus monkeys, 7 days, dose range 1.25 mg/kb to 4 mg/kg) turned out to be 100%. In addition, the “relapse after stopping the treatment” value in data set [5] (rhesus monkeys, up to 100 days after stopping the treatment) is “no relapse observed”. Further, in data set [3] (human, in vivo), the “methemoglobin level before dosing” value is given as 2.29%. Moreover, the “effect on anti-oxidant defense enzymes versus primaquine” value in data set [6] is given as “less effect on anti-oxidant defense enzymes than primaquine”.
